{"source": "ChEMBL document CHEMBL1795309", "about": "“Thiophenyl oxime-derived phosphonates as nano-molar class C beta-lactamase inhibitors reducing MIC of imipenem against Pseudomonas aeruginosa and Acinetobacter baumannii” (Bioorg Med Chem Lett, 2011)", "key": {"[1]": {"assay": "Inhibition of Pseudomonas aeruginosa beta lactamase TEM-1"}, "Beta-lactamase SHV-5": {"target": "Beta-lactamase SHV-5 (Klebsiella pneumoniae, UniProt P0A3M1)", "sequence (P0A3M1 whole entry)": "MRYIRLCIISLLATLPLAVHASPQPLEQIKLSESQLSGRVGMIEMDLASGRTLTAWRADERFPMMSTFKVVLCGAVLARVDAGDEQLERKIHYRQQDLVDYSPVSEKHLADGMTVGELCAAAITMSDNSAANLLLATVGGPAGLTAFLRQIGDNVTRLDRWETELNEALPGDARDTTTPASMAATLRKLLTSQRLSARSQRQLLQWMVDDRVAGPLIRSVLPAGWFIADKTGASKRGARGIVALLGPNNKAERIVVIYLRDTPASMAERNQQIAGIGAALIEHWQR", "assay": "Inhibition of Klebsiella pneumoniae beta lactamase SHV-5"}, "Beta-lactamase [2]": {"target": "Beta-lactamase (Pseudomonas aeruginosa (strain ATCC 15692 / PAO1 / 1C / PRS 101 / LMG12228), UniProt P24735)", "sequence (P24735 whole entry)": "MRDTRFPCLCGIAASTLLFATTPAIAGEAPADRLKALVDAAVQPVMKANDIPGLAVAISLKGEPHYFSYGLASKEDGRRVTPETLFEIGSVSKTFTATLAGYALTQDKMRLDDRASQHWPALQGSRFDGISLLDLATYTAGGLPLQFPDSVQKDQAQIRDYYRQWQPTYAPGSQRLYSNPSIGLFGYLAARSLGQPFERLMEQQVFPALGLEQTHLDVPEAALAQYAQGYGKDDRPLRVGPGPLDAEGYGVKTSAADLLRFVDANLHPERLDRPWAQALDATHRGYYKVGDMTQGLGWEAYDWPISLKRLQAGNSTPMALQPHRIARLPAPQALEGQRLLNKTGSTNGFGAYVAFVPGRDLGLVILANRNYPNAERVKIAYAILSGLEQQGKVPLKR", "assay": "Inhibition of Pseudomonas aeruginosa beta lactamase AmpC"}, "Beta-lactamase [3]": {"target": "Beta-lactamase (Enterobacter cloacae, UniProt P05364)", "sequence (P05364 whole entry)": "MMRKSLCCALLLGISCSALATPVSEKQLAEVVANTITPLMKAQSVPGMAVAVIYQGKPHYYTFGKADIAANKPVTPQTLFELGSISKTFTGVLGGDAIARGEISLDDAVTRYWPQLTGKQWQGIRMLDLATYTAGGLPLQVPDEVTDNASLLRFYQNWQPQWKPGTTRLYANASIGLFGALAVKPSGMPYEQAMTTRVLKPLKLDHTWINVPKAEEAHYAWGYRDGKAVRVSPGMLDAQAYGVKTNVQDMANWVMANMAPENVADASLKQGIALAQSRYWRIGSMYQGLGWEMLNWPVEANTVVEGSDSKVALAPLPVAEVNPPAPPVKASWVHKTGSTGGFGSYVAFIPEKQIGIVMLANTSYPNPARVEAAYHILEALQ", "assay": "Inhibition of Enterobacter cloacae beta lactamase P99"}, "Beta-lactamase [4]": {"target": "Beta-lactamase (Acinetobacter baumannii, UniProt Q8RLA6)", "sequence (Q8RLA6 whole entry)": "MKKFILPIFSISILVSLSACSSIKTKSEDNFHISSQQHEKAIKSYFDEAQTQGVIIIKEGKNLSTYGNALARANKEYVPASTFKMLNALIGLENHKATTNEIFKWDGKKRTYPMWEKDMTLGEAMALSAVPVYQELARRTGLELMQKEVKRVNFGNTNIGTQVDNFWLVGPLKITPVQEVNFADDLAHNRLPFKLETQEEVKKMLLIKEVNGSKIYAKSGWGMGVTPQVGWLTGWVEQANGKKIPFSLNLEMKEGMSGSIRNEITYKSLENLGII", "assay": "Inhibition of Acinetobacter baumannii beta lactamase OXA-40"}, "Pseudomonas aeruginosa [5]": {"system": "Pseudomonas aeruginosa", "assay": "Antimicrobial activity against imipenem-resistant Pseudomonas aeruginosa expressing beta lactamase AmpC assessed as reduction in imipenim MIC up to 100 uM", "type": "functional, organism-based"}, "Pseudomonas aeruginosa [6]": {"system": "Pseudomonas aeruginosa", "assay": "Antimicrobial activity against imipenem-resistant Pseudomonas aeruginosa expressing beta lactamase AmpC assessed as reduction in imipenim MIC", "type": "functional, organism-based"}, "Pseudomonas aeruginosa [7]": {"system": "Pseudomonas aeruginosa", "assay": "Antimicrobial activity against imipenem-resistant Pseudomonas aeruginosa expressing beta lactamase AmpC up to 100 uM", "type": "functional, organism-based"}, "Acinetobacter baumannii [8]": {"system": "Acinetobacter baumannii", "assay": "Antimicrobial activity against imipenem-resistant Acinetobacter baumannii CL6188 assessed as reduction in imipenim MIC", "type": "functional, organism-based"}, "Acinetobacter baumannii [9]": {"system": "Acinetobacter baumannii", "assay": "Antimicrobial activity against imipenem-resistant Acinetobacter baumannii CL6188 at 100 uM", "type": "functional, organism-based"}, "[10]": {"assay": "Half life in mouse at 2.5 mg/kg, iv", "type": "ADME, organism-based", "design": "dose 2.5 mg/kg, route intravenous", "details": "in vivo"}, "Mus musculus": {"system": "Mus musculus", "assay": "Dose normalized AUC in mouse at 2.5 mg/kg, iv", "type": "ADME, organism-based", "design": "dose 2.5 mg/kg, route intravenous", "details": "in vivo"}, "[11]": {"assay": "Clearance in mouse at 2.5 mg/kg, iv", "type": "ADME, organism-based", "design": "dose 2.5 mg/kg, route intravenous", "details": "in vivo"}, "[12]": {"assay": "Volume of distribution in mouse at 2.5 mg/kg, iv", "type": "ADME, organism-based", "design": "dose 2.5 mg/kg, route intravenous", "details": "in vivo"}}, "note": "Calls of active or inactive are those of the source. No cut-off for these calls is given here.", "data": [{"smiles": "N#Cc1ccc(OP(=O)(O)CNC(=O)C(=NO)c2cccs2)cc1F", "values": [{"measurement": "IC50", "setting": "[1]", "value": 23, "unit": "µM"}, {"measurement": "IC50", "setting": "Beta-lactamase SHV-5", "value": 27, "unit": "µM"}, {"measurement": "IC50", "setting": "Beta-lactamase [2]", "value": 0.2, "unit": "µM"}, {"measurement": "IC50", "setting": "Beta-lactamase [3]", "value": 0.1, "unit": "µM"}, {"measurement": "IC50", "setting": "Beta-lactamase [4]", "value": 21, "unit": "µM"}]}, {"smiles": "CO/N=C(\\C(=O)NCP(=O)(O)Oc1ccc(C#N)c(F)c1)c1cnc(NC(=O)C(Cl)(Cl)Cl)s1", "note": "(stereo in doubt; 2b)", "values": [{"measurement": "IC50", "setting": "Beta-lactamase SHV-5", "value": 15, "unit": "µM"}, {"measurement": "IC50", "setting": "Beta-lactamase [2]", "value": 3, "unit": "µM"}, {"measurement": "IC50", "setting": "Beta-lactamase [3]", "value": 0.71, "unit": "µM"}, {"measurement": "IC50", "setting": "Beta-lactamase [4]", "value": "> 12.5", "unit": "µM"}]}, {"smiles": "CO/N=C(\\C(=O)NCP(=O)(O)Oc1ccc(C#N)c(F)c1)c1cnc(NC(=O)C(Cl)(Cl)Cl)s1", "note": "(stereo in doubt; 2a)", "values": [{"measurement": "IC50", "setting": "[1]", "value": "> 50", "unit": "µM"}, {"measurement": "IC50", "setting": "Beta-lactamase SHV-5", "value": 25, "unit": "µM"}, {"measurement": "IC50", "setting": "Beta-lactamase [2]", "value": 3, "unit": "µM"}, {"measurement": "IC50", "setting": "Beta-lactamase [3]", "value": 0.34, "unit": "µM"}, {"measurement": "IC50", "setting": "Beta-lactamase [4]", "value": "> 12.5", "unit": "µM"}]}, {"smiles": "CO/N=C(/C(=O)NCP(=O)(O)Oc1ccc(C#N)c(F)c1)c1cccs1", "values": [{"measurement": "IC50", "setting": "[1]", "value": 28, "unit": "µM"}, {"measurement": "IC50", "setting": "Beta-lactamase SHV-5", "value": 22, "unit": "µM"}, {"measurement": "IC50", "setting": "Beta-lactamase [2]", "value": 0.0075, "unit": "µM"}, {"measurement": "IC50", "setting": "Beta-lactamase [3]", "value": 0.032, "unit": "µM"}, {"measurement": "IC50", "setting": "Beta-lactamase [4]", "value": 17, "unit": "µM"}, {"measurement": "Activity", "setting": "Pseudomonas aeruginosa [5]", "value": "Active"}, {"measurement": "Activity", "setting": "Pseudomonas aeruginosa [6]", "value": "Dose-dependent effect"}, {"measurement": "Activity", "setting": "Pseudomonas aeruginosa [7]", "value": "inactive"}, {"measurement": "Activity", "setting": "Acinetobacter baumannii [8]", "value": "Active"}, {"measurement": "Activity", "setting": "Acinetobacter baumannii [9]", "value": "inactive"}, {"measurement": "half-life", "setting": "[10]", "value": 32.4, "unit": "min"}, {"measurement": "AUC/dose", "setting": "Mus musculus", "value": 0.98, "unit": "µM/h/kg/mg"}, {"measurement": "clearance", "setting": "[11]", "value": 43, "unit": "mL/min/kg"}, {"measurement": "Vd", "setting": "[12]", "value": 1, "unit": "L/kg"}]}, {"smiles": "N#Cc1ccc(OP(=O)([O-])CNC(=O)/C(=N\\OCCC[n+]2ccccc2)c2cccs2)cc1F", "note": "(stereo in doubt; 6b)", "values": [{"measurement": "IC50", "setting": "[1]", "value": "> 50", "unit": "µM"}, {"measurement": "IC50", "setting": "Beta-lactamase SHV-5", "value": "> 50", "unit": "µM"}, {"measurement": "IC50", "setting": "Beta-lactamase [2]", "value": 0.087, "unit": "µM"}, {"measurement": "IC50", "setting": "Beta-lactamase [3]", "value": 0.17, "unit": "µM"}, {"measurement": "IC50", "setting": "Beta-lactamase [4]", "value": "> 50", "unit": "µM"}]}, {"smiles": "CON=C(C(=O)NCP(=O)(O)Oc1ccc(C#N)c(F)c1)c1cccs1", "values": [{"measurement": "IC50", "setting": "[1]", "value": "> 50", "unit": "µM"}, {"measurement": "IC50", "setting": "Beta-lactamase SHV-5", "value": "> 50", "unit": "µM"}, {"measurement": "IC50", "setting": "Beta-lactamase [2]", "value": 0.0096, "unit": "µM"}, {"measurement": "IC50", "setting": "Beta-lactamase [3]", "value": 0.039, "unit": "µM"}, {"measurement": "IC50", "setting": "Beta-lactamase [4]", "value": "> 50", "unit": "µM"}]}, {"smiles": "CO/N=C(/C(=O)NCP(=O)(O)Oc1ccc(C#N)c(F)c1)c1ccc(Cl)s1", "values": [{"measurement": "IC50", "setting": "[1]", "value": 16, "unit": "µM"}, {"measurement": "IC50", "setting": "Beta-lactamase [2]", "value": 0.005, "unit": "µM"}, {"measurement": "IC50", "setting": "Beta-lactamase [3]", "value": 0.019, "unit": "µM"}, {"measurement": "IC50", "setting": "Beta-lactamase [4]", "value": 31, "unit": "µM"}, {"measurement": "Activity", "setting": "Pseudomonas aeruginosa [5]", "value": "Active"}, {"measurement": "Activity", "setting": "Pseudomonas aeruginosa [6]", "value": "Dose-dependent effect"}, {"measurement": "Activity", "setting": "Pseudomonas aeruginosa [7]", "value": "inactive"}, {"measurement": "Activity", "setting": "Acinetobacter baumannii [8]", "value": "inactive"}, {"measurement": "Activity", "setting": "Acinetobacter baumannii [9]", "value": "inactive"}]}, {"smiles": "CO/N=C(\\C(=O)NCP(=O)(O)O)c1cccs1", "values": [{"measurement": "IC50", "setting": "[1]", "value": "> 50", "unit": "µM"}, {"measurement": "IC50", "setting": "Beta-lactamase SHV-5", "value": "> 50", "unit": "µM"}, {"measurement": "IC50", "setting": "Beta-lactamase [2]", "value": 6.5, "unit": "µM"}, {"measurement": "IC50", "setting": "Beta-lactamase [3]", "value": 21, "unit": "µM"}, {"measurement": "IC50", "setting": "Beta-lactamase [4]", "value": "> 50", "unit": "µM"}]}, {"smiles": "CO/N=C(\\C(=O)NCP(=O)(O)Oc1ccc(C#N)c(F)c1)c1cccs1", "values": [{"measurement": "IC50", "setting": "[1]", "value": "> 50", "unit": "µM"}, {"measurement": "IC50", "setting": "Beta-lactamase SHV-5", "value": "> 12.5", "unit": "µM"}, {"measurement": "IC50", "setting": "Beta-lactamase [2]", "value": 0.046, "unit": "µM"}, {"measurement": "IC50", "setting": "Beta-lactamase [3]", "value": 0.1, "unit": "µM"}, {"measurement": "IC50", "setting": "Beta-lactamase [4]", "value": 26, "unit": "µM"}]}, {"smiles": "CO/N=C(/C(=O)NCP(=O)(O)O)c1cccs1", "values": [{"measurement": "IC50", "setting": "[1]", "value": "> 50", "unit": "µM"}, {"measurement": "IC50", "setting": "Beta-lactamase SHV-5", "value": "> 50", "unit": "µM"}, {"measurement": "IC50", "setting": "Beta-lactamase [2]", "value": 3.2, "unit": "µM"}, {"measurement": "IC50", "setting": "Beta-lactamase [3]", "value": 3, "unit": "µM"}, {"measurement": "IC50", "setting": "Beta-lactamase [4]", "value": "> 50", "unit": "µM"}]}, {"smiles": "N#Cc1ccc(OP(=O)([O-])CNC(=O)/C(=N\\OCCC[n+]2ccccc2)c2cccs2)cc1F", "note": "(stereo in doubt; 6a)", "values": [{"measurement": "IC50", "setting": "[1]", "value": 17, "unit": "µM"}, {"measurement": "IC50", "setting": "Beta-lactamase SHV-5", "value": "> 50", "unit": "µM"}, {"measurement": "IC50", "setting": "Beta-lactamase [2]", "value": 0.021, "unit": "µM"}, {"measurement": "IC50", "setting": "Beta-lactamase [3]", "value": 0.087, "unit": "µM"}, {"measurement": "IC50", "setting": "Beta-lactamase [4]", "value": 27, "unit": "µM"}]}, {"smiles": "CO/N=C(\\C(=O)NCP(=O)(O)Oc1ccc(C#N)c(F)c1)c1cnc(N)s1", "values": [{"measurement": "IC50", "setting": "[1]", "value": "> 50", "unit": "µM"}, {"measurement": "IC50", "setting": "Beta-lactamase SHV-5", "value": "> 50", "unit": "µM"}, {"measurement": "IC50", "setting": "Beta-lactamase [2]", "value": 1.5, "unit": "µM"}, {"measurement": "IC50", "setting": "Beta-lactamase [3]", "value": 0.8, "unit": "µM"}, {"measurement": "IC50", "setting": "Beta-lactamase [4]", "value": "> 50", "unit": "µM"}]}]}
